ChEMBL document CHEMBL3046835, “Insecticidal activity influence of beta-cypermethrin on the pathogenicity of Beauveria bassiana against Aleurodicus disperses” (Crop Prot, 2013)
Values after ≈ are worked out from the molar mass of the structure shown.

Key:
[1] = tested on: Aleurodicus dispersus; assay: Insecticidal activity against third-instar nymph stage of Aleurodicus dispersus in guava leaves assessed as mortality treated for 15 s measured at 27 +/-2 degC after 24 hr; format: functional
[2] = tested on: Aleurodicus dispersus; assay: Insecticidal activity against third-instar nymph stage of Aleurodicus dispersus in guava plant leaves assessed as mortality at 4 mg/L applied via hand sprayer measured after 6 days in presence of 10^8 Beauveria bassiana conidial suspension under field conditions (reference value: 26.9 +/-3.04%); format: functional; conditions: 144 h
[3] = tested on: Aleurodicus dispersus; assay: Insecticidal activity against third-instar nymph stage of Aleurodicus dispersus in guava plant leaves assessed as mortality at 2 mg/l measured after 6 days under laboratory conditions (reference value: 3%); format: functional; conditions: 144 h
[4] = tested on: Aleurodicus dispersus; assay: Insecticidal activity against third-instar nymph stage of Aleurodicus dispersus in guava leaves assessed as mortality at 2.5 mg/l treated for 15 s measured at 27 +/-2 degC after 24 hr (reference value: 2%); format: functional
[5] = tested on: Aleurodicus dispersus; assay: Insecticidal activity against third-instar nymph stage of Aleurodicus dispersus in guava leaves assessed as mortality at 40 mg/l treated for 15 s measured at 27 +/-2 degC after 24 hr (reference value: 2%); format: functional
[6] = tested on: Beauveria bassiana; assay: Inhibition of Beauveria bassiana Bb-N1 mycelial growth at 2 mg/L measured at 27 +/-2 degC after 10 days (reference value: 2.4 +/-0.19%); format: organism-based; design: scale not given: the % may be the effect or the level left; conditions: in vivo, 240 h
[7] = tested on: Beauveria bassiana; assay: Inhibition of Beauveria bassiana Bb-N1 mycelial growth at 8 mg/L measured at 27 +/-2 degC after 10 days (reference value: 2.4 +/-0.19%); format: organism-based; design: scale not given: the % may be the effect or the level left; conditions: in vivo, 240 h
[8] = tested on: Aleurodicus dispersus; assay: Insecticidal activity against third-instar nymph stage of Aleurodicus dispersus in guava plant leaves assessed as mortality at 8 mg/L applied via hand sprayer measured after 6 days under field conditions (reference value: 3.5%); format: functional; conditions: 144 h
[9] = tested on: Beauveria bassiana; assay: Effect on Beauveria bassiana Bb-N1 conidial germination at 10 mg/L measured at 27 +/-2 degC after 24 hr (reference value: 94.85 +/-2.13%); format: ADME, organism-based; conditions: in vivo
[10] = tested on: Aleurodicus dispersus; assay: Insecticidal activity against third-instar nymph stage of Aleurodicus dispersus in guava plant leaves assessed as mortality at 4 mg/l measured after 3 days in presence of 10^8 Beauveria bassiana conidial suspension under laboratory conditions (reference value: 24.3 +/-1.03%); format: functional; conditions: 72 h
[11] = tested on: Aleurodicus dispersus; assay: Insecticidal activity against third-instar nymph stage of Aleurodicus dispersus in guava plant leaves assessed as mortality at 2 mg/L applied via hand sprayer measured after 3 days in presence of 10^8 Beauveria bassiana conidial suspension under field conditions (reference value: 22.2 +/-3.15%); format: functional; conditions: 72 h
[12] = tested on: Aleurodicus dispersus; assay: Insecticidal activity against third-instar nymph stage of Aleurodicus dispersus in guava leaves assessed as mortality treated for 15 s measured at 27 +/-2 degC after 48 hr; format: functional
[13] = tested on: Aleurodicus dispersus; assay: Insecticidal activity against third-instar nymph stage of Aleurodicus dispersus in guava plant leaves assessed as mortality at 2 mg/L applied via hand sprayer measured after 6 days under field conditions (reference value: 3.5%); format: functional; conditions: 144 h
[14] = tested on: Beauveria bassiana; assay: Effect on Beauveria bassiana Bb-N1 conidial germination at 2 mg/L measured at 27 +/-2 degC after 24 hr (reference value: 94.85 +/-2.13%); format: ADME, organism-based; conditions: in vivo
[15] = tested on: Aleurodicus dispersus; assay: Insecticidal activity against third-instar nymph stage of Aleurodicus dispersus in guava plant leaves assessed as mortality at 2 mg/L applied via hand sprayer measured after 9 days in presence of 10^8 Beauveria bassiana conidial suspension under field conditions (reference value: 42.3 +/-3.58%); format: functional; conditions: 216 h
[16] = tested on: Aleurodicus dispersus; assay: Insecticidal activity against third-instar nymph stage of Aleurodicus dispersus in guava plant leaves assessed as mortality at 8 mg/l measured after 6 days under laboratory conditions (reference value: 3%); format: functional; conditions: 144 h
[17] = tested on: Aleurodicus dispersus; assay: Insecticidal activity against third-instar nymph stage of Aleurodicus dispersus in guava plant leaves assessed as mortality at 2 mg/l measured after 9 days under laboratory conditions (reference value: 3%); format: functional; conditions: 216 h
[18] = tested on: Aleurodicus dispersus; assay: Insecticidal activity against third-instar nymph stage of Aleurodicus dispersus in guava plant leaves assessed as mortality at 8 mg/l measured after 9 days under laboratory conditions (reference value: 3%); format: functional; conditions: 216 h
[19] = tested on: Aleurodicus dispersus; assay: Insecticidal activity against third-instar nymph stage of Aleurodicus dispersus in guava leaves assessed as mortality at 20 mg/l treated for 15 s measured at 27 +/-2 degC after 24 hr (reference value: 2%); format: functional
[20] = tested on: Aleurodicus dispersus; assay: Insecticidal activity against third-instar nymph stage of Aleurodicus dispersus in guava leaves assessed as mortality at 2.5 mg/l treated for 15 s measured at 27 +/-2 degC after 48 hr (reference value: 3%); format: functional
[21] = tested on: Aleurodicus dispersus; assay: Insecticidal activity against third-instar nymph stage of Aleurodicus dispersus in guava leaves assessed as mortality at 20 mg/l treated for 15 s measured at 27 +/-2 degC after 48 hr (reference value: 3%); format: functional
[22] = tested on: Aleurodicus dispersus; assay: Insecticidal activity against third-instar nymph stage of Aleurodicus dispersus in guava leaves assessed as mortality at 10 mg/l treated for 15 s measured at 27 +/-2 degC after 48 hr (reference value: 3%); format: functional
[23] = tested on: Aleurodicus dispersus; assay: Insecticidal activity against third-instar nymph stage of Aleurodicus dispersus in guava plant leaves assessed as mortality at 4 mg/l measured after 9 days in presence of 10^8 Beauveria bassiana conidial suspension under laboratory conditions (reference value: 45.7 +/-3.18%); format: functional; conditions: 216 h
[24] = tested on: Aleurodicus dispersus; assay: Insecticidal activity against third-instar nymph stage of Aleurodicus dispersus in guava leaves assessed as mortality at 5 mg/l treated for 15 s measured at 27 +/-2 degC after 24 hr (reference value: 2%); format: functional
[25] = tested on: Aleurodicus dispersus; assay: Insecticidal activity against third-instar nymph stage of Aleurodicus dispersus in guava plant leaves assessed as mortality at 4 mg/L applied via hand sprayer measured after 3 days under field conditions (reference value: 3%); format: functional; conditions: 72 h
[26] = tested on: Aleurodicus dispersus; assay: Insecticidal activity against third-instar nymph stage of Aleurodicus dispersus in guava plant leaves assessed as mortality at 8 mg/L applied via hand sprayer measured after 9 days under field conditions (reference value: 4%); format: functional; conditions: 216 h
[27] = tested on: Aleurodicus dispersus; assay: Insecticidal activity against third-instar nymph stage of Aleurodicus dispersus in guava plant leaves assessed as mortality at 2 mg/l measured after 9 days in presence of 10^8 Beauveria bassiana conidial suspension under laboratory conditions (reference value: 45.7 +/-3.18%); format: functional; conditions: 216 h
[28] = tested on: Aleurodicus dispersus; assay: Insecticidal activity against third-instar nymph stage of Aleurodicus dispersus in guava plant leaves assessed as mortality at 8 mg/l measured after 3 days in presence of 10^8 Beauveria bassiana conidial suspension under laboratory conditions (reference value: 24.3 +/-1.03%); format: functional; conditions: 72 h

## CC1(C)[C@H](C=C(Cl)Cl)[C@H]1C(=O)O[C@@H](C#N)c1cccc(Oc2ccccc2)c1 [BETA-CYPERMETHRIN]
[1]
  LC95: 1551.51 µg/mL (≈ 3730 µM)
[1]; Aleurodicus dispersus, Nymph stage, 24 h
  LC50: 50 µg/mL (≈ 120 µM)
[2]
  mortality at 4 µg/mL: 60.5%
[3]
  mortality at 2 µg/mL: 28.7%
[4]
  mortality at 2.5 µg/mL: 9.1%
[5]
  mortality at 40 µg/mL: 46.6%
[6]
  Activity: 2.7%
[7]
  Activity: 4.4%
[8]
  mortality at 8 µg/mL: 29.4%
[9]
  germination rate: 89.18%
[10]
  mortality at 4 µg/mL: 74.3%
[11]
  mortality at 2 µg/mL: 32.3%
[12]
  LC95: 1768.57 µg/mL (≈ 4250 µM)
[12]; Aleurodicus dispersus, Nymph stage, 48 h
  LC50: 18.4 µg/mL (≈ 44.1 µM)
[13]
  mortality at 2 µg/mL: 20.9%
[14]
  germination rate: 93.78%
[15]
  mortality at 2 µg/mL: 54.2%
[16]
  mortality at 8 µg/mL: 39.3%
[17]
  mortality at 2 µg/mL: 28.7%
[18]
  mortality at 8 µg/mL: 39.3%
[19]
  mortality at 20 µg/mL: 34.5%
[20]
  mortality at 2.5 µg/mL: 25.2%
[21]
  mortality at 20 µg/mL: 52.8%
[22]
  mortality at 10 µg/mL: 47.8%
[23]
  mortality at 4 µg/mL: 77.6%
[24]
  mortality at 5 µg/mL: 16.2%
[25]
  mortality at 4 µg/mL: 26.7%
[26]
  mortality at 8 µg/mL: 29.4%
[27]
  mortality at 2 µg/mL: 75.3%
[28]
  mortality at 8 µg/mL: 76.1%
